Holding throughout (assay type): cell-based, human
The test system of one test is NQO1. As to the kind of experiment: NQO1 mRNA by RT-qPCR. To be noted: 48 h. The protocol: (§1) LUHMES cells were seeded on PLO/FN coated 6-well microplates and the pharmacological treatments were performed as previously explained. The cells were washed in HBSS, prior to being collected for mRNA isolation (RNeasy® Plus Mini Kit, Qiagen, Venlo, Netherlands), following the manufacturer’s instructions. The mRNA concentrations were determined on a Nano-Drop 2000c (Thermo Fisher Scientific) and 1 µg of mRNA was reverse-transcribed into cDNA with the iScript™ Reverse Transcription Supermix for RT-qPCR Kit (Bio-Rad) on a thermal cycler (SensoQuest, Göttingen, Germany). Real-time PCR was performed using SYBR™ Select Master Mix for CFX (Thermo Fisher Scientific) with 30 ng cDNA and 0.4 µM of primers against the respective target genes (Supplementary Table S3), in a 20 µl total volume, on a CFX96 Touch™ Real-Time Cycler (Bio-Rad). The relative expression of mRNA was calculated using the CFX Manager software (ΔΔCt method) from Bio-Rad, and the Ct values of the target-genes were normalized to the reference genes RPL22 and UBQLN1. The data were reported as fold change relative to the control (DMSO-treated) condition.
On the technique in general: Quantitative PCR measures a nucleic acid by following its amplification.

A further test has as its system LUHMES cells. The test can be described thus: Protective effects against annonacin toxicity, calcein viability assay. The following applies: with 20 nM annonacin, glucose-reduced medium, 48 h; 40 μM Ki 696–2, 1 μM HPP-D, 15 μM ezetimibe, 4 μM licochalcone A; most protective or highest non-toxic concentration for the others. The protocol: The calcein AM green dye (Thermo Fisher Scientific) was diluted in DMSO to obtain a 1 mM stock solution. The stock solution was further diluted in HBSS (Hanks' balanced salt solution), immediately before incubation, to achieve a final working concentration of 1 μM in the well. The medium was removed, the cells were washed once with warm HBSS, and 200 µl of calcein working solution was added to each well. For background correction, 200 µl of calcein working solution was added to a well without cells (background control). After 30 min of incubation at 37 °C, the calcein solution was removed and the cells were washed once with HBSS. Cells were lysed in a 200 µl volume of 1% Triton™ X-100 in PBS (phosphate buffered saline) and the lysate transferred to a 96‐well black plate for the readout. The fluorescence signal was measured on a FLUOstar® Omega plate reader (BMG LabTech, Ortenberg, Germany) at λ Ex/Em = 485/530 nm and data was analyzed with the MARS data analysis software (BMG LabTech). For background correction, we subtracted the background control signal from the measured values of all experimental conditions. Data were expressed as percentage of viability relative to the control (DMSO-treated) condition.
For pharmacological treatments, we acquired several previously described Nrf2-pathway activators: ezetimibe (Cayman), licochalcone A (MedChem Express, New Jersey, NJ, USA), bardoxolone methyl, saracatinib and PP2 (AbMole BioScience Inc., Houston, TX, USA). The enantiomers Ki 696–1 and Ki 696–2, and the compound HPP-D were kindly provided by Orion Pharma (Espoo, Finland). All compounds were dissolved in DMSO and stored in small aliquots at -80 °C to avoid freeze–thaw cycles. Compound general toxicity was determined on PLO/FN double-coated 48-well microplates as follows: after 4 days of differentiation, LUHMES cells were incubated with the different Nrf2-pathway activators at concentrations ranging from 1 nM to 100 µM, for 96 h. The cell viability was assessed by calcein assay on day 8 of differentiation. Non-toxic concentrations of the Nrf2-pathway activators were selected and used in the pharmacological treatments, in combination with 20 nM of annonacin, in glucose-reduced differentiation medium, over a period of 48 h, similar to an in vitro model reported before. The protective effects of Nrf2-pathway activators against annonacin toxicity were determined in terms of cell viability with the calcein assay.

The subject of the next test is 4R-tau transcripts. The test can be described thus: 4R-tau mRNA and 4R-/3R-tau ratio by RT-qPCR. To be noted: 48 h. The protocol:
as §1

[1] abbreviates: 15 μM ezetimibe + 20 nM annonacin.

Regarding `Cn1c(Nc2nc3ccc(C(F)(F)F)cc3s2)nc2cc(C(=O)NCCOCCO)ccc21` [HPP-D], the “NQO1 mRNA expression” value with NQO1 (absence of annonacin) was “fivefold”. The “reduction of annonacin toxicity” value with LUHMES cells is 21%.
Consider `CCCCCCCCCCCC[C@@H](O)[C@H]1CC[C@H]([C@H](O)CCCC[C@H](O)CCCCC[C@@H](O)CC2=CC(C)OC2=O)O1` (stereo partly drawn) [annonacin], for which, in the test on 4R-tau transcripts (20 nM annonacin alone), the 4R-/3R-tau isoforms ratio was 3.5 fold over control and the “upregulation of 4R-tau transcripts over control cells” value is on record as “twofold”. The “NQO1 mRNA expression” value in the test with NQO1 (20 nM annonacin alone (DMSO control condition) vs DMSO control without annonacin) is “downregulation of both target-genes”.
`O=C1[C@H](CC[C@H](O)c2ccc(F)cc2)[C@@H](c2ccc(O)cc2)N1c1ccc(F)cc1` [ezetimibe]: the 4R-/3R-tau isoforms ratio result in the test on 4R-tau transcripts (setting [1]) was “remained similar to healthy control cells”. The 4R-tau transcripts result with 4R-tau transcripts (setting [1]) is given as “prevented the annonacin-induced upregulation of 4R-tau transcripts”. The “NQO1 mRNA expression” value is “did not induce significant changes” with NQO1 (absence of annonacin) and “did not induce significant changes” in the test with NQO1 (presence of 20 nM annonacin, vs DMSO control under annonacin). Further, in the test with LUHMES cells, the “reduction of annonacin toxicity” value was 33%.
Take `C=CC(C)(C)c1cc(/C=C/C(=O)c2ccc(O)cc2)c(OC)cc1O` [licochalcone A]: the “NQO1 mRNA expression” value in the test with NQO1 (absence of annonacin) is recorded as 2.5 fold over DMSO control. The “reduction of annonacin toxicity” value in the test with LUHMES cells is given as 34.6%.

The record behind these values is PMC11362529, “Exploring the neuroprotective potential of Nrf2-pathway activators against annonacin toxicity” (Scientific Reports, 2024).
